Patent publication US20240124454A1, “TRICYCLIC COMPOUND AND USE THEREOF” (NANJING ZAIMING PHARMACEUTICAL CO., LTD., priority 2020, published 2024)
Like-named read-outs stand apart in the source and are kept apart here.

What was measured:
MAT2A = MAT2A (Homo sapiens (Human), UniProt P31153); assay: MAT2A biochemical test (inorganic phosphate colorimetric, PiColorLock); settings: read-out: MAT2A inhibitory Activity IC50
Summary of the method: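 Compounds tested from 10 μM top concentration in 3-fold dilutions, preincubated 120 min at room temperature with MAT2A ([…] final) in Tris/KCl/MgCl2/EDTA/BSA buffer. Reaction started with […] L-methionine and 400 μM ATP, run 90 min at room temperature; phosphate read by PiColorLock after 30 min. IC50 fitted from % inhibition versus no-enzyme and DMSO controls.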

[1] = Metabolic stability in human liver microsomes; type: in vitro ADME; settings: pH 7.4, 1 μM compound, 0.5 mg/mL microsome, NADPH, read-out: Human liver microsome stability t1/2
Protocol: Test Example 4. Determination of Metabolic Stability of Compound of the Present Application in Liver Microsomes
The metabolic stability of the compound of the present application in liver microsomes was determined using the following method.
I. Experimental materials and instruments • 1. Human liver microsome (Corning 452117), beagle dog liver microsome (XENOTECH D1000), SD rat liver microsome (XENOTECH R1000), and CD-i mouse liver microsome (XENOTECH M1000) • 2. Na2HPO4 (Tianjin Guangfu Fine Chemical Research Institute 20180130) • 3. KH2PO4 (Tianjin Guangfu Fine Chemical Research Institute 20180920) • 4. MgCl2 (Tianjin Guangfu Fine Chemical Research Institute 20191216) • 5. NADPH (Solarbio 1216C022) • 6. Positive control compound verapamil (Sigma MKBV4993V) • 7. AB Sciex API4000 liquid chromatography-mass spectrometry system
1. Preparation of 100 mMV phosphate-buffered saline (PBS): 7.098 g Na2HPO4 was weighed. 500 mL pure water was added. The mixture was dissolved by sonication to give solution A. 3.400 g KH2PO4 was weighed. 250 mL pure water was added. The mixture was dissolved by sonication to give solution B. The solution A was placed in a stirrer, and the solution B was slowly added until the pH reached 7.4, so that the 100 mM PBS buffer was prepared.
2. Preparation of reaction system
The reaction system was prepared as follows:
3. The reaction system was pre-incubated in a 37° C. water bath for 10 min. 40 μL of 10 mM NADPH solution (NADPH was dissolved by 100 mM phosphate-buffered saline) was added to the reaction system with a final concentration of NADPH being 1 mM. A negative control was made by replacing the NADPH solution with 40 μL phosphate-buffered saline. The negative control was used to exclude the effect of chemical stability of the compound itself.
4. The reaction was initiated by adding 4 μL of 100 μM of the compound of the present application and verapamil, the positive control compound, to the reaction system with a final concentration of the compound being 1 μM.
5. After being uniformly mixed in a vortex oscillator, 50 μL incubation sample was respectively taken out at 0.5, 15, 30, 45, and 60 min, and the reaction was stopped by 200 μL glacial acetonitrile containing an internal standard. The sample was centrifuged at 3220 g for 45 min. 90 μL of the supernatant was transferred to a feeding plate after the centrifugation was completed, and 90 μL ultrapure water was added. The mixture was well mixed for LC-MS/MS analysis.
All data were calculated by Microsoft Excel software. The peak area was detected through an extracted ion chromatogram. The in vitro half-life (t1/2) of the compound was determined by linear fitting of the natural logarithm of compound elimination percentage over time.
In vitro half-life (t1/2) was calculated by the slope: […]
The in vitro intrinsic clearance (in μL/min/mg protein) was calculated using the following formula:
in vitro CLint=k×volume of incubation (μL)/amount of proteins (mg)
CLint was intrinsic clearance; k was an elimination rate constant; volume of incubation was the incubation volume (μL); amount of proteins was the amount of protein (mg)

Chain of MAT2A (P31153 whole entry): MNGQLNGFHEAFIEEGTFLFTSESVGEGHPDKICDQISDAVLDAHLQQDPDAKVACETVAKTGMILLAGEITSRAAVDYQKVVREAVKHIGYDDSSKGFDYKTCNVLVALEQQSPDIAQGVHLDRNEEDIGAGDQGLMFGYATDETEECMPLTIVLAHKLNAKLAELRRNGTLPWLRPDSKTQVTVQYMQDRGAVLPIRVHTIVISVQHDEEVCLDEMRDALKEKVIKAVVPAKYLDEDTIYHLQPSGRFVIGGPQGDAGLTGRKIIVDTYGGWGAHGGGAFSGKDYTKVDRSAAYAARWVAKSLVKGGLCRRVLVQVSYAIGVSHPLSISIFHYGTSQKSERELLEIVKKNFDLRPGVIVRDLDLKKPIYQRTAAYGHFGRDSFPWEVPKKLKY

Cc1ncccc1-n1c(=O)c2ncn(C)c2c2ccc(C(F)(F)F)nc21 (atropisomer, axis not shown) [Compound 20, 1-methyl-5-(2-methylpyridin-3-yl)-7-(trifluoromethyl)-1,5-dihydro-4H-imidazo[4,5-c][1,8]naphthyridin-4-one]
IC50 (MAT2A; class symbols): < 100 nM
IC50 (MAT2A; numeric values): 54.9 nM
half-life at 1 μM [1]: > 5 h

Cn1cnc2c(=O)n(-c3cccc(F)c3Cl)c3nc(C(F)(F)F)ccc3c21 (atropisomer, axis not shown) [Compound 25, 5-(2-chloro-3-fluorophenyl)-1-methyl-7-(trifluoromethyl)-1,5-dihydro-4H-imidazo[4,5-c][1,8]naphthyridin-4-one]
IC50 (MAT2A; class symbols): < 100 nM
IC50 (MAT2A; numeric values): 48 nM
half-life at 1 μM [1]: > 5 h

Cn1cnc2c(=O)n(-c3cccc(F)c3Cl)c3nc(C(F)(F)F)ccc3c21 (single isomer, unassigned) [Compound 25-P2, 5-(2-chloro-3-fluorophenyl)-1-methyl-7-(trifluoromethyl)-1,5-dihydro-4H-imidazo[4,5-c][1,8]naphthyridin-4-one]
IC50 (MAT2A; class symbols): < 100 nM
IC50 (MAT2A; numeric values): 20.6 nM
half-life at 1 μM [1]: > 5 h

Cn1cnc2c(=O)n(-c3cccnc3C(F)(F)F)c3nc(C(F)(F)F)ccc3c21 (single isomer, unassigned) [Compound 41-P2, 1-methyl-7-(trifluoromethyl)-5-(2-(trifluoromethyl)pyridin-3-yl)-1,5-dihydro-4H-imidazo[4,5-c][1,8]naphthyridin-4-one]
IC50 (MAT2A; class symbols): < 100 nM
IC50 (MAT2A; numeric values): 22.3 nM
half-life at 1 μM [1]: > 5 h

Cn1cnc2c(=O)n(-c3cccnc3C3CC3)c3nc(C(F)(F)F)ccc3c21 (single isomer, unassigned) [Compound 42-P2, 5-(2-cyclopropylpyridin-3-yl)-1-methyl-7-(trifluoromethyl)-1,5-dihydro-4H-imidazo[4,5-c][1,8]naphthyridin-4-one]
IC50 (MAT2A; class symbols): < 100 nM
IC50 (MAT2A; numeric values): 20.3 nM
half-life at 1 μM [1]: 4.26 h

Cn1cnc2c(=O)n(-c3cccnc3C3CC3)c3cc(C(F)(F)F)ccc3c21 (single isomer, unassigned) [Compound 48-P2, 5-(2-cyclopropylpyridin-3-yl)-1-methyl-7-(trifluoromethyl)-1,5-dihydro-4H-imidazo[4,5-c]quinolin-4-one]
IC50 (MAT2A; class symbols): < 100 nM
IC50 (MAT2A; numeric values): 21.4 nM
half-life at 1 μM [1]: > 5 h

Cn1cnc2c(=O)n(-c3cccnc3C3CC3)c3cc(Cl)ccc3c21 (single isomer, unassigned) [Compound 49-P2, 7-chloro-5-(2-cyclopropylpyridin-3-yl)-1-methyl-1,5-dihydro-4H-imidazo[4,5-c]quinolin-4-one]
IC50 (MAT2A; class symbols): < 100 nM
IC50 (MAT2A; numeric values): 18.7 nM
half-life at 1 μM [1]: 3.78 h

O=c1c2ncoc2c2ccc(C(F)(F)F)nc2n1-c1cccnc1C1CC1 (single isomer, unassigned) [Compound 81-P2, 5-(2-cyclopropylpyridin-3-yl)-7-(trifluoromethyl)oxazolo[4,5-c][1,8]naphthyridin-4(5H)-one]
IC50 (MAT2A; class symbols): < 100 nM
IC50 (MAT2A; numeric values): 36.2 nM
half-life at 1 μM [1]: > 5 h

Cn1cnc2c(=O)n(-c3cccc(F)c3Cl)c3cc(Cl)ccc3c21 [Compound 39, 7-chloro-5-(2-chloro-3-fluorophenyl)-1-methyl-1,5-dihydro-4H-imidazo[4,5-c]quinolin-4-one]
IC50 (MAT2A; class symbols): < 100 nM
IC50 (MAT2A; numeric values): 60.4 nM

Cc1ncccc1-n1c(=O)c2ncoc2c2ccc(C(F)(F)F)nc21 [Compound 40, 5-(2-methylpyridin-3-yl)-7-(trifluoromethyl)oxazolo[4,5-c][1,8]naphthyridin-4(5H)-one]
IC50 (MAT2A; class symbols): < 100 nM
IC50 (MAT2A; numeric values): 43 nM
half-life at 1 μM [1]: > 5 h

Cc1ncccc1-n1c(=O)c2ncn(C)c2c2ccc(C(F)(F)F)cc21 [Compound 45, 1-methyl-5-(2-methylpyridin-3-yl)-7-(trifluoromethyl)-1,5-dihydro-4H-imidazo[4,5-c]quinolin-4-one]
IC50 (MAT2A; class symbols): < 100 nM
IC50 (MAT2A; numeric values): 47 nM
half-life at 1 μM [1]: > 5 h
